{"source": "patent US10149887B2", "about": "“Peptides and peptidomimetics in combination with t cell activating and/or checkpoint inhibiting agents for cancer treatment” (CanBas Co., Ltd., priority 2015, dated 2018)", "key": {"[1]": {"system": "phospho-eIF2-alpha", "assay": "CDDP-induced phosphorylation of eIF2-alpha in CT26WT cells (immunoblotting)", "assay_type": "cell-based, murine", "details": "10-20 uM CDDP with 0.5 μM CBP501, 45 min", "description": "A day later, cells were collected and analyzed by immunoblotting using specific antibody against phospho-eIF2-alpha (n=8) (FIG. 22A) and the amount of relative Phospho-eIF2-alpha was quantitated (FIG. 22B). Samples were compared by student's t-test. *P<0.05 **P<0.01, compared with untreated cells, and ^†P<0.05, ^††P<0.01, compared with the corresponding CDDP alone.\nAfter changing with fresh drug-free medium, cells were incubated for 24, 48, or 72 hours for Immunoblotting analysis of phospho-eIF2-alpha, for calreticulin analysis by FACS, or for HMGB1 ELISA.\nCells were lysed by incubating with a buffer [NaCl (100 mM), Tris-HCl (50 mM, pH 8.0), DTT (1 mM), NP40 (0.5% w/v) containing PhosSTOP Phosphatase Inhibitor Cocktail and Complete Proteinase Inhibitor Cocktail Tablets (Roche Life Science) each diluted to the manufacturer's specified concentrations] at 4° C. for 30 minutes and centrifuged (15 000 rpm, 4° C., 20 minutes). The supernatant (whole-cell lysate) was electrophoresed (SDS-PAGE), and transferred from the gel onto a polyvinylidene difluoride (PVDF) membrane (Millipore) by electroblotting. […] Images were recorded with a Luminescent Image Analyzer LAS-4000 system (Fujifilm) and quantified the band intensity with Multi Gauge software (Fujifilm)."}, "[2]": {"system": "MCF-7", "assay": "G2 checkpoint abrogation by CBP501 combined with cis-platin, flow cytometry", "assay_type": "cell-based", "details": "MCF-7, mammary gland; cis-platin 3 μg/ml 3 hr, then 45 hr", "description": "(§1) The medium was aspirated, fresh medium without these compounds was added and the cells were incubated for an additional 45 hr. The cells including floating cells were harvested using trypsin-EDTA solution, incubated with Krishan's solution and analyzed for DNA content by flow cytometry as previously described."}, "[3]": {"system": "DU-145", "assay": "G2 checkpoint abrogation by CBP501 combined with cis-platin, flow cytometry", "assay_type": "cell-based", "details": "DU-145, prostate, MLH1; cis-platin 3 μg/ml 3 hr, then 45 hr", "description": "as §1"}, "[4]": {"system": "Panc1", "assay": "G2 checkpoint abrogation by CBP501 combined with cis-platin, flow cytometry", "assay_type": "cell-based", "details": "Panc1, pancreas; cis-platin 3 μg/ml 3 hr, then 45 hr", "description": "as §1"}, "[5]": {"system": "SW900", "assay": "G2 checkpoint abrogation by CBP501 combined with cis-platin, flow cytometry", "assay_type": "cell-based", "details": "SW900, lung, SCC; cis-platin 3 μg/ml 3 hr, then 45 hr", "description": "as §1"}}, "note": "Square brackets hold non-standard residues; d marks the D form. Peptide text beside a SMILES is read from it. dPhe(F5) = N[C@H](Cc1c(F)c(F)c(F)c(F)c1F)C(=O)O; dBpa = N[C@H](Cc1ccc(C(=O)c2ccccc2)cc1)C(=O)O; dCha = N[C@H](CC1CCCCC1)C(=O)O", "data": [{"smiles": "N=C(N)NCCC[C@@H](NC(=O)[C@@H](CCCNC(=N)N)NC(=O)[C@@H](CCC(N)=O)NC(=O)[C@@H](CCCNC(=N)N)NC(=O)[C@@H](CCCNC(=N)N)NC(=O)[C@@H](CCCNC(=N)N)NC(=O)[C@@H](CC1CCCCC1)NC(=O)[C@@H](Cc1c(F)c(F)c(F)c(F)c1F)NC(=O)[C@@H](CO)NC(=O)[C@@H](Cc1c[nH]c2ccccc12)NC(=O)[C@@H](CO)NC(=O)[C@H](N)Cc1ccc(C(=O)c2ccccc2)cc1)C(=O)O", "note": "[CBP501, (d-Bpa)(d-Ser)(d-Trp)(d-Ser)(d-Phe-2,3,4,5,6-F)(d-Cha)(d-Arg)(d-Arg)(d-Arg)(d-Gln)(d-Arg)(d-Arg)] (H-[dBpa][dS][dW][dS][dPhe(F5)][dCha][dR][dR][dR][dQ][dR][dR]-OH; N-terminus and C-terminus assumed)", "values": [{"measurement": "CDDP-induced phosphorylation of eIF2-alpha", "setting": "[1]", "result": "augmented"}, {"measurement": "G2 checkpoint abrogating dose of CBP501, cis-platin", "setting": "[2]", "result": ">10", "unit": "µM"}, {"measurement": "G2 checkpoint abrogating dose of CBP501, cis-platin", "setting": "[3]", "result": 0.4, "unit": "µM"}, {"measurement": "G2 checkpoint abrogating dose of CBP501, cis-platin", "setting": "[4]", "result": ">10", "unit": "µM"}, {"measurement": "G2 checkpoint abrogating dose of CBP501, cis-platin", "setting": "[5]", "result": ">10", "unit": "µM"}]}]}
